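All cell lines were grown in 96-well plates and treated with compound for 48 hours. GI50: concentration for 50% inhibition of growth.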 Active and inactive are the calls of the source. Cut-off read from the data, not from the text of the source: active = GI50 up to about 1.1 µM and inactive = higher.
Key:
Experiment in all cases: NCI-60 cell line screen, 48 h
[1] = system: SK-MEL-28
[2] = system: CCRF-CEM
[3] = system: KM12
[4] = system: M14
[5] = system: RXF 631
[6] = system: DMS-114
[7] = system: TK-10
[8] = system: SK-MEL-2
[9] = system: K562
[10] = system: OVCAR-5
[11] = system: HL-60
[12] = system: SF-539
[13] = system: OVCAR-8
[14] = system: U-251
[15] = system: LXFL 529
[16] = system: SW-620
[17] = system: HOP-92
[18] = system: SK-OV-3
[19] = system: ACHN
[20] = system: LOX IMVI
[21] = system: UACC-62
[22] = system: NCI-H522
[23] = system: DLD-1
[24] = system: HOP-62
[25] = system: HCT-15
[26] = system: A549
[27] = system: OVCAR-4
[28] = system: M19-MEL
[29] = system: HCT-116
[30] = system: SF-295
[31] = system: SN12C
[32] = system: SF-268
[33] = system: IGROV-1
[34] = system: DMS-273
[35] = system: SR
[36] = system: XF498
[37] = system: SNB-19
[38] = system: UO-31
[39] = system: SNB-78
[40] = system: A498
[41] = system: CAKI-1
[42] = system: HT-29
[43] = system: 786-0
[44] = system: COLO 205
[45] = system: NCI-H23
[46] = system: NCI-H226
[47] = system: Malme-3M
[48] = system: OVCAR-3
[49] = system: NCI-H460
[50] = system: UACC-257
[51] = system: SNB-75
[52] = system: EKVX
[53] = system: RXF 393
[54] = system: MOLT-4
[55] = system: RPMI-8226
[56] = system: SK-MEL-5
[57] = system: HCC 2998
[58] = system: KM-20L2
[59] = system: MDA-MB-231
[60] = system: PC-3
[61] = system: T47D
[62] = system: NCI/ADR-RES
[63] = system: BT-549
[64] = system: Hs-578T
[65] = system: MCF7
[66] = system: DU-145
[67] = system: MDA-MB-435
[68] = system: MDA-N

COc1ccc(OC)c(/C=N/N=C(\N)NO)c1
GI50 [1]: 75.7 µM (inactive)
GI50 [2]: 16.6 µM (inactive)
GI50 [3]: 22.4 µM (inactive)
GI50 [4]: 20.1 µM (inactive)
GI50 [5]: 37.6 µM (inactive)
GI50 [6]: 14.9 µM (inactive)
GI50 [7]: 19.4 µM (inactive)
GI50 [8]: 42.3 µM (inactive)
GI50 [9]: 6.81 µM (inactive)
GI50 [10]: 27.4 µM (inactive)
GI50 [11]: 25.4 µM (inactive)
GI50 [12]: 7.62 µM (inactive)
GI50 [13]: 27.7 µM (inactive)
GI50 [14]: 34.4 µM (inactive)
GI50 [15]: 4.57 µM (inactive)
GI50 [16]: 24.3 µM (inactive)
GI50 [17]: 23.3 µM (inactive)
GI50 [18]: 30.7 µM (inactive)
GI50 [19]: 12.3 µM (inactive)
GI50 [20]: 2.84 µM (inactive)
GI50 [21]: 4.61 µM (inactive)
GI50 [22]: 14.3 µM (inactive)
GI50 [23]: 17.2 µM (inactive)
GI50 [24]: 29.6 µM (inactive)
GI50 [25]: 5.98 µM
GI50 [26]: 8.22 µM (inactive)
GI50 [27]: 7.28 µM (inactive)
GI50 [28]: 61 µM (inactive)
GI50 [29]: 24.5 µM (inactive)
GI50 [30]: 21.9 µM (inactive)
GI50 [31]: 31.4 µM (inactive)
GI50 [32]: 23.3 µM (inactive)
GI50 [33]: 29.6 µM (inactive)
GI50 [34]: 6.31 µM (inactive)
GI50 [35]: 45.2 µM (inactive)
GI50 [36]: 18 µM (inactive)
GI50 [37]: 88.7 µM (inactive)
GI50 [38]: 14.2 µM (inactive)
GI50 [39]: 82.6 µM (inactive)
GI50 [40]: > 10 µM (inactive)
GI50 [41]: 8.04 µM (inactive)
GI50 [42]: 36.6 µM (inactive)
GI50 [43]: 21.4 µM (inactive)
GI50 [44]: 10.6 µM (inactive)
GI50 [45]: 27 µM (inactive)
GI50 [46]: 16.6 µM (inactive)
GI50 [47]: 36.8 µM (inactive)
GI50 [48]: 23.8 µM (inactive)
GI50 [49]: 15 µM (inactive)
GI50 [50]: 30.5 µM (inactive)
GI50 [51]: 72.4 µM (inactive)
GI50 [52]: 13.3 µM (inactive)
GI50 [53]: 39.5 µM (inactive)

COC(=O)[C@@H]1C[C@H](c2ccc(OC)c(OC)c2)OC1=O.COC(=O)[C@H]1C[C@H](c2ccc(OC)c(OC)c2)OC1=O
GI50 [1]: > 100 µM (inactive)
GI50 [2]: > 100 µM (inactive)
GI50 [3]: > 100 µM (inactive)
GI50 [4]: > 100 µM (inactive)
GI50 [5]: > 100 µM (inactive)
GI50 [6]: > 100 µM (inactive)
GI50 [7]: > 100 µM (inactive)
GI50 [54]: > 100 µM (inactive)
GI50 [9]: > 100 µM (inactive)
GI50 [10]: > 100 µM (inactive)
GI50 [55]: > 100 µM (inactive)
GI50 [11]: > 100 µM (inactive)
GI50 [12]: > 100 µM (inactive)
GI50 [13]: > 100 µM (inactive)
GI50 [14]: > 100 µM (inactive)
GI50 [15]: > 100 µM (inactive)
GI50 [16]: > 100 µM (inactive)
GI50 [17]: > 100 µM (inactive)
GI50 [18]: > 100 µM (inactive)
GI50 [19]: > 100 µM (inactive)
GI50 [20]: > 100 µM (inactive)
GI50 [21]: > 100 µM (inactive)
GI50 [22]: > 100 µM (inactive)
GI50 [23]: > 100 µM (inactive)
GI50 [24]: > 100 µM (inactive)
GI50 [25]: > 100 µM
GI50 [26]: > 100 µM (inactive)
GI50 [27]: > 100 µM (inactive)
GI50 [28]: > 100 µM (inactive)
GI50 [29]: > 100 µM (inactive)
GI50 [30]: > 100 µM (inactive)
GI50 [31]: > 100 µM (inactive)
GI50 [32]: > 100 µM (inactive)
GI50 [33]: > 100 µM (inactive)
GI50 [56]: > 100 µM (inactive)
GI50 [34]: > 100 µM (inactive)
GI50 [35]: > 100 µM (inactive)
GI50 [36]: > 100 µM (inactive)
GI50 [57]: 61.9 µM (inactive)
GI50 [37]: > 100 µM (inactive)
GI50 [38]: > 100 µM (inactive)
GI50 [58]: > 100 µM (inactive)
GI50 [39]: > 100 µM (inactive)
GI50 [40]: > 100 µM (inactive)
GI50 [41]: > 100 µM (inactive)
GI50 [42]: > 100 µM (inactive)
GI50 [43]: > 100 µM (inactive)
GI50 [44]: > 100 µM (inactive)
GI50 [45]: > 100 µM (inactive)
GI50 [46]: > 100 µM (inactive)
GI50 [47]: > 100 µM (inactive)
GI50 [48]: > 100 µM (inactive)
GI50 [49]: > 100 µM (inactive)
GI50 [50]: > 100 µM (inactive)
GI50 [51]: > 100 µM (inactive)
GI50 [52]: > 100 µM (inactive)
GI50 [53]: > 100 µM (inactive)

CN1C(=O)C(C)(C)NS1(=O)=O
GI50 [1]: > 100 µM (inactive)
GI50 [2]: > 100 µM (inactive)
GI50 [3]: > 100 µM (inactive)
GI50 [4]: > 100 µM (inactive)
GI50 [5]: > 100 µM (inactive)
GI50 [6]: > 100 µM (inactive)
GI50 [7]: > 100 µM (inactive)
GI50 [54]: > 100 µM (inactive)
GI50 [8]: > 100 µM (inactive)
GI50 [9]: > 100 µM (inactive)
GI50 [10]: > 100 µM (inactive)
GI50 [55]: > 100 µM (inactive)
GI50 [11]: > 100 µM (inactive)
GI50 [12]: > 100 µM (inactive)
GI50 [13]: > 100 µM (inactive)
GI50 [14]: > 100 µM (inactive)
GI50 [15]: > 100 µM (inactive)
GI50 [16]: > 100 µM (inactive)
GI50 [18]: > 100 µM (inactive)
GI50 [19]: > 100 µM (inactive)
GI50 [20]: > 100 µM (inactive)
GI50 [21]: > 100 µM (inactive)
GI50 [23]: > 100 µM (inactive)
GI50 [24]: > 100 µM (inactive)
GI50 [25]: > 100 µM
GI50 [26]: > 100 µM (inactive)
GI50 [27]: > 100 µM (inactive)
GI50 [28]: > 100 µM (inactive)
GI50 [29]: > 100 µM (inactive)
GI50 [30]: > 100 µM (inactive)
GI50 [31]: > 100 µM (inactive)
GI50 [32]: > 100 µM (inactive)
GI50 [33]: > 100 µM (inactive)
GI50 [56]: > 100 µM (inactive)
GI50 [34]: > 100 µM (inactive)
GI50 [36]: > 100 µM (inactive)
GI50 [57]: > 100 µM (inactive)
GI50 [37]: > 100 µM (inactive)
GI50 [38]: > 100 µM (inactive)
GI50 [58]: > 100 µM (inactive)
GI50 [39]: > 100 µM (inactive)
GI50 [40]: > 100 µM (inactive)
GI50 [41]: > 100 µM (inactive)
GI50 [42]: > 100 µM (inactive)
GI50 [43]: > 100 µM (inactive)
GI50 [44]: > 100 µM (inactive)
GI50 [45]: > 100 µM (inactive)
GI50 [47]: > 100 µM (inactive)
GI50 [48]: > 100 µM (inactive)
GI50 [49]: > 100 µM (inactive)
GI50 [50]: > 100 µM (inactive)
GI50 [51]: > 100 µM (inactive)
GI50 [52]: > 100 µM (inactive)
GI50 [53]: > 100 µM (inactive)

CN(C)CCNc1ccc2nnn3c4ccc(Cl)cc4c(=O)c1c23
GI50 [1]: 5.74 µM (inactive)
GI50 [2]: 4.62 µM (inactive)
GI50 [3]: 4.54 µM (inactive)
GI50 [4]: 4.94 µM (inactive)
GI50 [5]: 2.37 µM (inactive)
GI50 [59]: 11.1 µM (inactive)
GI50 [7]: 5 µM (inactive)
GI50 [54]: 0.624 µM (active)
GI50 [8]: 6.19 µM (inactive)
GI50 [9]: 2.14 µM (inactive)
GI50 [10]: 4.14 µM (inactive)
GI50 [55]: 2.92 µM (inactive)
GI50 [11]: 4.73 µM (inactive)
GI50 [12]: 4.78 µM (inactive)
GI50 [13]: 1.7 µM (inactive)
GI50 [14]: 1.33 µM (inactive)
GI50 [60]: 2.76 µM (inactive)
GI50 [15]: 3.23 µM (inactive)
GI50 [16]: 1.03 µM (active)
GI50 [17]: 3.69 µM (inactive)
GI50 [61]: 14.4 µM (inactive)
GI50 [18]: 9.89 µM (inactive)
GI50 [19]: 1.55 µM (inactive)
GI50 [20]: 1.6 µM (inactive)
GI50 [21]: 4.89 µM (inactive)
GI50 [62]: 1.04 µM (active)
GI50 [22]: 2.49 µM (inactive)
GI50 [23]: 3.21 µM (inactive)
GI50 [24]: 4.18 µM (inactive)
GI50 [25]: 2.16 µM
GI50 [26]: 2.72 µM (inactive)
GI50 [63]: 16 µM (inactive)
GI50 [27]: 2.94 µM (inactive)
GI50 [28]: 3.51 µM (inactive)
GI50 [29]: 1.48 µM (inactive)
GI50 [30]: 2.85 µM (inactive)
GI50 [64]: 3.3 µM (inactive)
GI50 [31]: 2.36 µM (inactive)
GI50 [32]: 3.4 µM (inactive)
GI50 [33]: 3.65 µM (inactive)
GI50 [56]: 2.94 µM (inactive)
GI50 [34]: 2.82 µM (inactive)
GI50 [35]: 1.33 µM (inactive)
GI50 [36]: 8.73 µM (inactive)
GI50 [65]: 5.01 µM (inactive)
GI50 [57]: 8.67 µM (inactive)
GI50 [37]: 4.17 µM (inactive)
GI50 [38]: 1.56 µM (inactive)
GI50 [58]: 2.86 µM (inactive)
GI50 [39]: 11.9 µM (inactive)
GI50 [40]: 2.8 µM (inactive)
GI50 [41]: 2.25 µM (inactive)
GI50 [66]: 5.22 µM (inactive)
GI50 [42]: 1.88 µM (inactive)
GI50 [43]: 2.42 µM (inactive)
GI50 [44]: 1.18 µM (inactive)
GI50 [45]: 5.09 µM (inactive)
GI50 [46]: 2.06 µM (inactive)
GI50 [47]: 4.89 µM (inactive)
GI50 [48]: 5.6 µM (inactive)
GI50 [49]: 2.48 µM (inactive)
GI50 [67]: 4.65 µM (inactive)
GI50 [50]: 5.19 µM (inactive)
GI50 [51]: 3.01 µM (inactive)
GI50 [52]: 4.45 µM (inactive)
GI50 [68]: 3.52 µM (inactive)
GI50 [53]: 3.15 µM (inactive)
